Test results published in US20250161299A1, “ORAL PCLX-001 IN THE TREATMENT OF HUMAN CANCER” (PACYLEX PHARMACEUTICALS INC., priority 2022, published 2025).
“Also recorded” adds a separate entry of the source. Like-named read-outs stand apart in the source and are kept apart here.

Assay: Phase I trial of oral PCLX-001: plasma pharmacokinetics, noncompartmental analysis (Phoenix WinNonlin 8.3)
Format: in vivo, human
Conditions: for half-life / Tmax / AUC(0-inf) / Cmax / AUC(0-t): human, plasma, po; for half-life: read-out: Half-life (converted); for Tmax: read-out: Tmax; for AUC(0-t): read-out: AUClast or AUCtau
Excerpt: The clinical trial is entitled “Phase I Trial of PCLX-001 in B-cell Non-Hodgkin Lymphoma and Advanced Solid Malignancies” and registered at clinicaltrials.gov as NCT04836195. It is a phase I dose-escalation study of oral PCLX-001, conducted in a multicenter, non-randomized, open-label, non-controlled design. The study is comprised of two parts: Part A (single-agent dose escalation) and Part B (single-agent expansion cohorts).
Patients are to receive daily oral PCLX-001 on 28-day cycles, beginning with a starting dose of 20 mg.
[…] After dosing, the blood samples (volumes 3 mL) were serially collected into heparinized tubes from a right forearm butterfly cannula. All blood fluid specimens were frozen and later assayed using a validated UHPLC-MS detection method.
Noncompartmental pharmacokinetic analysis was performed using Phoenix WinNonlin 8.3 using trapezoidal rule and linear up log down methodology. WinNonlin was allowed to pick optimal terminal phases.
Nonparametric superposition was performed using Phoenix WinNonlin Nonparametric Superposition to predict steady state data based upon Day 1 data for each patient. It utilized the 8- and 24-hour time points for estimation of terminal phase for the purposes of this exercise. We simulated 20 mg daily oral dosing and simulations were conducted out to steady state. Results are show in FIGS. 5, 6, and 7.
In the non-compartmental analysis, Phoenix WinNonlin 8.3 trapezoidal rule was used, with linear up log down method. This allowed WinNonlin to pick optimal terminal phase (WinNonlin will accept Rsq adjusted to >0.7). Additional analysis to assess adequate fie included visual inspection of data, and AUCextrap should be <15%.
Phoenix WinNonlin 8.3 trapezoidal rule. Used linear up log down method. Allowed WinNonlin to pick optimal terminal phase (WinNonlin will accept Rsq adjusted >0.7).
Other analysis to assess adequate fit. Visual inspection of data. AUCextrap should be <15%.

[1] = 20 mg, Table 1A, Patient 115-002-004 (Patient 3), Day 15, 20 mg oral daily
[2] = 20 mg, Table 6, Patient 115-002-001, Day 1, 20 mg QD oral, Pantoprazole No
[3] = 20 mg, Table 6, Patient 115-002-001, Day 15, 20 mg QD oral, Pantoprazole No
[4] = 20 mg, Table 6, Patient 115-002-002, Day 1, 20 mg QD oral, Pantoprazole No
[5] = 20 mg, Table 6, Patient 115-002-002, Day 15, 20 mg QD oral, Pantoprazole No
[6] = 20 mg, Table 6, Patient 115-002-004, Day 1, 20 mg QD oral, Pantoprazole No
[7] = 20 mg, Table 6, Patient 115-002-004, Day 15, 20 mg QD oral, Pantoprazole No
[8] = 40 mg, Table 7, Patient 115-002-005, Day 1, 40 mg QD oral, Pantoprazole Yes
[9] = 40 mg, Table 7, Patient 115-002-005, Day 15, 40 mg QD oral, Pantoprazole Yes
[10] = 40 mg, Table 7, Patient 115-002-006, Day 1, 40 mg QD oral, Pantoprazole Yes
[11] = 40 mg, Table 7, Patient 115-002-006, Day 15, 40 mg QD oral, Pantoprazole Yes
[12] = 40 mg, Table 7, Patient 115-009-001, Day 1, 40 mg QD oral, Pantoprazole No
[13] = 40 mg, Table 7, Patient 115-009-001, Day 15, 40 mg QD oral, Pantoprazole No
[14] = 70 mg, Table 8, Patient 115-002-007, Day 1, 70 mg QD oral, Pantoprazole Yes
[15] = 70 mg, Table 8, Patient 115-002-007, Day 15, 70 mg QD oral, Pantoprazole Yes
[16] = 70 mg, Table 8, Patient 115-002-008, Day 1, 70 mg QD oral, Pantoprazole Yes
[17] = 70 mg, Table 8, Patient 115-002-008, Day 15, 70 mg QD oral, Pantoprazole Yes
[18] = 70 mg, Table 8, Patient 115-024-001, Day 1, 70 mg QD oral, Pantoprazole No
[19] = 70 mg, Table 8, Patient 115-024-001, Day 15, 70 mg QD oral, Pantoprazole No
[20] = 100 mg, Table 9, Patient 115-002-009, Day 1, 100 mg QD oral, Pantoprazole No
[21] = 100 mg, Table 9, Patient 115-002-010, Day 1, 100 mg QD oral, Pantoprazole No
[22] = 100 mg, Table 9, Patient 115-002-011, Day 1, 100 mg QD oral, Pantoprazole No
[23] = 100 mg, Table 9, Patient 115-002-011, Day 15, 100 mg QD oral, Pantoprazole No
[24] = 100 mg, Table 9, Patient 115-002-012, Day 1, 100 mg QD oral, Pantoprazole No
[25] = 100 mg, Table 9, Patient 115-002-012, Day 15, 100 mg QD oral, Pantoprazole No
[26] = 140 mg, Table 10, Patient 115-002-006, Day 1, Dose 140 mg QD oral, Concomitant Pantoprazole No
[27] = 140 mg, Table 10, Patient 115-002-006, Day 15, Dose 140 mg QD oral, Concomitant Pantoprazole No
[28] = 140 mg, Table 10, Patient 115-024-005, Day 1, Dose 140 mg QD oral, Concomitant Pantoprazole Yes
[29] = 140 mg, Table 10, Patient 115-024-005, Day 15, Dose 140 mg QD oral, Concomitant Pantoprazole Yes
[30] = 140 mg, Table 10, Patient 115-024-013, Day 1, Dose 140 mg QD oral, Concomitant Pantoprazole Yes
[31] = 140 mg, Table 10, Patient 115-024-013, Day 15, Dose 140 mg QD oral, Concomitant Pantoprazole Yes

For `Cc1c(NS(=O)(=O)c2c(Cl)cc(-c3ccnc(N4CCNCC4)c3)cc2Cl)c(CC(C)C)nn1C` [PCLX-001, 2,6-dichloro-N-(3-isobutyl-1,5-dimethyl-1H-pyrazol-4-yl)-4-(2-(piperazin-1-yl)pyridin-4-yl)benzene sulfonamide], the half-life [1] was 6.86 h, the Tmax [1] was 0.5 h and the AUC(0-inf) [2] was 2.03 µg·h/mL. The Cmax [2] was 0.36 µg/mL, the AUC(0-t) [2] was 1.72 µg·h/mL and the half-life [2] was 8.34 h. For the same compound, the Tmax [2] was 1 h, the AUC(0-inf) [3] was 3.6 µg·h/mL and the Cmax [3] was 0.479 µg/mL. It also gave an AUC(0-t) [3] of 2.75 µg·h/mL, a half-life [3] of 10.9 h and a Tmax [3] of 1 h. For the same compound, the Cmax [4] was 0.142 µg/mL, the AUC(0-t) [4] was 1.3 µg·h/mL and the Tmax [4] was 4 h. The AUC(0-inf) [5] was 2.44 µg·h/mL, the Cmax [5] was 0.243 µg/mL and the AUC(0-t) [5] was 2.01 µg·h/mL. It also gave a half-life [5] of 9.42 h, a Tmax [5] of 2 h and an AUC(0-inf) [6] of 1.88 µg·h/mL. For the same compound, the Cmax [6] was 0.326 µg/mL, the AUC(0-t) [6] was 1.79 µg·h/mL and the half-life [6] was 5.51 h. The Tmax [6] was 2 h, the AUC(0-inf) [7] was 2.11 µg·h/mL and the Cmax [7] was 0.356 µg/mL. It also gave an AUC(0-t) [7] of 1.9 µg·h/mL, a half-life [7] of 6.47 h and a Tmax [7] of 0.5 h. It also gave an AUC(0-inf) [8] of 4.9 µg·h/mL, a Cmax [8] of 0.868 µg/mL and an AUC(0-t) [8] of 4.43 µg·h/mL. It also gave a half-life [8] of 7.5 h, a Tmax [8] of 0.5 h and an AUC(0-inf) [9] of 7.05 µg·h/mL. The Cmax [9] was 0.802 µg/mL, the AUC(0-t) [9] was 6.68 µg·h/mL and the half-life [9] was 5.54 h. For the same compound, the Tmax [9] was 2 h, the Cmax [10] was 0.00713 µg/mL and the AUC(0-t) [10] was 0.0796 µg·h/mL. The Tmax [10] was 4 h, the Cmax [11] was 0.0408 µg/mL and the AUC(0-t) [11] was 0.175 µg·h/mL. For the same compound, the Tmax [11] was 4 h, the AUC(0-inf) [12] was 12.6 µg·h/mL and the Cmax [12] was 1.67 µg/mL. The AUC(0-t) [12] was 10.1 µg·h/mL, the half-life [12] was 10.8 h and the Tmax [12] was 1 h. It also gave an AUC(0-inf) [13] of 18.3 µg·h/mL, a Cmax [13] of 1.48 µg/mL and an AUC(0-t) [13] of 13.7 µg·h/mL. The half-life [13] was 11.9 h, the Tmax [13] was 2 h and the Cmax [14] was 0.158 µg/mL. The AUC(0-t) [14] was 1.96 µg·h/mL, the Tmax [14] was 4 h and the Cmax [15] was 0.602 µg/mL. For the same compound, the AUC(0-t) [15] was 8.13 µg·h/mL, the Tmax [15] was 4 h and the Cmax [16] was 0.408 µg/mL. For the same compound, the AUC(0-t) [16] was 4.55 µg·h/mL, the Tmax [16] was 8 h and the Cmax [17] was 0.17 µg/mL. It also gave an AUC(0-t) [17] of 3.38 µg·h/mL, a Tmax [17] of 8 h and a Cmax [18] of 1.43 µg/mL. It also gave an AUC(0-t) [18] of 9.39 µg·h/mL, a half-life [18] of 9.44 h and a Tmax [18] of 1 h. The Cmax [19] was 0.629 µg/mL, the AUC(0-t) [19] was 7.3 µg·h/mL and the Tmax [19] was 4 h. It also gave an AUC(0-inf) [20] of 15.4 µg·h/mL, a Cmax [20] of 1.74 µg/mL and an AUC(0-t) [20] of 14.8 µg·h/mL. It also gave a half-life [20] of 5.02 h, a Tmax [20] of 2 h and an AUC(0-inf) [21] of 22.4 µg·h/mL. It also gave a Cmax [21] of 2.49 µg/mL, an AUC(0-t) [21] of 20 µg·h/mL and a half-life [21] of 7.17 h. It also gave a Tmax [21] of 2 h, an AUC(0-inf) [22] of 16.2 µg·h/mL and a Cmax [22] of 1.65 µg/mL. For the same compound, the AUC(0-t) [22] was 13.2 µg·h/mL, the half-life [22] was 9.6 h and the Tmax [22] was 2 h. It also gave a Cmax [23] of 1.16 µg/mL, an AUC(0-t) [23] of 17.9 µg·h/mL and a Tmax [23] of 4 h. It also gave a Cmax [24] of 1.21 µg/mL, an AUC(0-t) [24] of 12.6 µg·h/mL and a Tmax [24] of 4 h. For the same compound, the AUC(0-inf) [25] was 19.4 µg·h/mL, the Cmax [25] was 1.53 µg/mL and the AUC(0-t) [25] was 17 µg·h/mL. The half-life [25] was 7.56 h, the Tmax [25] was 2 h and the AUC(0-inf) [26] was 24.2 µg·h/mL. For the same compound, the Cmax [26] was 2.71 µg/mL, the AUC(0-t) [26] was 21.2 µg·h/mL and the half-life [26] was 7.91 h. The Tmax [26] was 0.5 h, the AUC(0-inf) [27] was 41.9 µg·h/mL and the Cmax [27] was 2.2 µg/mL. The AUC(0-t) [27] was 26 µg·h/mL, the half-life [27] was 16.4 h and the Tmax [27] was 2 h. For the same compound, the AUC(0-inf) [28] was 4.16 µg·h/mL, the Cmax [28] was 0.406 µg/mL and the AUC(0-t) [28] was 3.63 µg·h/mL. It also gave a half-life [28] of 7.56 h, a Tmax [28] of 1 h and an AUC(0-inf) [29] of 7.19 µg·h/mL. It also gave a Cmax [29] of 0.295 µg/mL, an AUC(0-t) [29] of 4.32 µg·h/mL and a half-life [29] of 17.4 h. It also gave a Tmax [29] of 2 h, an AUC(0-inf) [30] of 11.5 µg·h/mL and a Cmax [30] of 2.19 µg/mL. The AUC(0-t) [30] was 10.9 µg·h/mL, the half-life [30] was 5.86 h and the Tmax [30] was 1 h. It also gave an AUC(0-inf) [31] of 14.3 µg·h/mL, a Cmax [31] of 1.51 µg/mL and an AUC(0-t) [31] of 11 µg·h/mL. The half-life [31] was 10.1 h, the Tmax [31] was 1 h and the “peak plasma concentrations versus concentrations active in cultured cells” value (patients 1, 2 and 3, 20 mg oral daily) was “exceeded those needed to suppress cultured human cancer cell growth”. For the same compound, the “trough plasma concentrations (immediately prior to dosing on day 2, 15, and 22)” value (patients 1, 2 and 3, 20 mg oral daily, versus allometric scaling from mice, rats, dogs) was “higher than anticipated” and the “effect of pantoprazole on systemic exposure / oral absorption” value (patients taking pantoprazole vs not) was “lower in patients taking pantoprazole; also recorded: reduces oral absorption”.
